Measurements from patent US20220177508A1, “C10-Cyclic Substituted 13-Membered Macrolides and Uses Thereof” (Zikani Therapeutics, Inc., priority 2018, published 2022).
≈ marks a conversion by molar mass, not a printed value. Like-named read-outs stand apart in the source and are kept apart here.

Columns and labels:
Type in all cases: cell-based
[1] = system: S. aureus MP-12; test: Broth dilution MIC determination (CLSI), S. aureus MP-12; details: Staphylococcus aureus, MP12; strain MP-12, broth dilution
[2] = system: E. coli MP-4; test: Broth dilution MIC determination (CLSI), E. coli MP-4; details: Escherichia coli
[3] = system: K. pneumoniae MP-546; test: Broth dilution MIC determination (CLSI), K. pneumoniae MP-546; details: Klebsiella pneumoniae, MP546; strain MP-546, broth dilution
[4] = system: P. aeruginosa MP-3; test: Broth dilution MIC determination (CLSI), P. aeruginosa MP-3; details: Pseudomonas aeruginosa, MP3; strain MP-3, broth dilution
[5] = system: A. baumannii MP-15; test: Broth dilution MIC determination (CLSI), A. baumannii MP-15; details: Acinetobacter baumannii, MP15; strain MP-15, broth dilution; read-out: MIC A. baumanii MP-15
[6] = MP4, strain MP-4, broth dilution, read-out: MIC E. coli MP-4

Compound	MIC [1] [µg/mL]	MIC [2, 6] [µg/mL]	MIC [3] [µg/mL]	MIC [4] [µg/mL]	MIC [5] [µg/mL]	MIC ([2]; MP4, read-out: MIC E. coli MP-4) [µg/mL]
CO[C@]1(C)C[C@@H](C)CN(C)[C@H](C2CC3CCC(C2)N3C)COC(=O)C(C)(C)C(=O)[C@H](C)[C@H]1O[C@@H]1O[C@H](C)C[C@H](N(C)C)[C@H]1O (stereo partly drawn) [Compound 129, (3R,6R,8R,9R,10R)-9-(((2S,3R,4S,6R)-4-(dimethylamino)-3-hydroxy-6-methyltetrahydro-2H-pyran-2-yl)oxy)-8-methoxy-4,6,8,10,12,12-hexamethyl-3-(8-methyl-8-azabicyclo[3.2.1]octan-3-yl)-1-oxa-4-azacyclotridecane-11,13-dione]	> 32	< 4	4 to 32 (≈ 6.41 to 51.3 µM)	> 32	> 32	
CO[C@]1(C)C[C@@H](C)CN(C)[C@H](C2CCN(C)CC2)[C@H](C)OC(=O)C(C)(C)C(=O)[C@H](C)[C@H]1O[C@@H]1O[C@H](C)C[C@H](N(C)C)[C@H]1O [Compound 130, (2S,3R,6R,8R,9R,10R)-9-(((2S,3R,4S,6R)-4-(dimethylamino)-3-hydroxy-6-methyltetrahydro-2H-pyran-2-yl)oxy)-8-methoxy-2,4,6,8,10,12,12-heptamethyl-3-(1-methylpiperidin-4-yl)-1-oxa-4-azacyclotridecane-11,13-dione]	> 32	4 to 32 (≈ 6.54 to 52.3 µM)	> 32	> 32	> 32	
CO[C@]1(C)C[C@@H](C)CN(C)[C@H](c2ccc(B(O)O)cc2)COC(=O)C(C)(C)C(=O)[C@H](C)[C@H]1O[C@@H]1O[C@H](C)C[C@H](N(C)C)[C@H]1O [Compound 133, (4-((3R,6R,8R,9R,10R)-9-(((2S,3R,4S,6R)-4-(Dimethylamino)-3-hydroxy-6-methyltetrahydro-2H-pyran-2-yl)oxy)-8-methoxy-4,6,8,10,12,12-hexamethyl-11,13-dioxo-1-oxa-4-azacyclotridecan-3-yl)phenyl)boronic acid]	> 32	4 to 32 (≈ 6.45 to 51.6 µM)	> 32	> 32	> 32	
CO[C@]1(C)C[C@@H](C)CN(C)[C@H](C2CNC2)COC(=O)C(C)(C)C(=O)[C@H](C)[C@H]1O[C@@H]1O[C@H](C)C[C@H](N(C)C)[C@H]1O [Compound 134, (3R,6R,8R,9R,10R)-3-(azetidin-3-yl)-9-(((2S,3R,4S,6R)-4-(dimethylamino)-3-hydroxy-6-methyltetrahydro-2H-pyran-2-yl)oxy)-8-methoxy-4,6,8,10,12,12-hexamethyl-1-oxa-4-azacyclotridecane-11,13-dione]	> 32	< 4	4 to 32 (≈ 7.2 to 57.6 µM)	> 32	> 32	
CO[C@]1(C)C[C@@H](C)CN(C)[C@@H]([C@H]2CC[C@H](N(C)C)CC2)COC(=O)C(C)(C)C(=O)[C@H](C)[C@H]1O[C@@H]1O[C@H](C)C[C@H](N(C)C)[C@H]1O [Compound 137, (3S,6R,8R,9R,10R)-9-(((2S,3R,4S,6R)-4-(dimethylamino)-3-hydroxy-6-methyltetrahydro-2H-pyran-2-yl)oxy)-3-((1r,4S)-4-(dimethylamino)cyclohexyl)-8-methoxy-4,6,8,10,12,12-hexamethyl-1-oxa-4-azacyclotridecane-11,13-dione]	> 32	4 to 32 (≈ 6.39 to 51.1 µM)	4 to 32 (≈ 6.39 to 51.1 µM)	> 32	> 32	
CO[C@]1(C)C[C@@H](C)CN(C)[C@@H]([C@H]2CCN(C(C)=O)C2)COC(=O)C(C)(C)C(=O)[C@H](C)[C@H]1O[C@@H]1O[C@H](C)C[C@H](N(C)C)[C@H]1O [Compound 140, (3S,6R,8R,9R,10R)-3-((S)-1-acetylpyrrolidin-3-yl)-9-(((2S,3R,4S,6R)-4-(dimethylamino)-3-hydroxy-6-methyltetrahydro-2H-pyran-2-yl)oxy)-8-methoxy-4,6,8,10,12,12-hexamethyl-1-oxa-4-azacyclotridecane-11,13-dione]	> 32	4 to 32 (≈ 6.54 to 52.3 µM)	> 32	> 32	> 32	
CO[C@]1(C)C[C@@H](C)CN(C)[C@H](C2CN(CC=C(C)C)C2)COC(=O)C(C)(C)C(=O)[C@H](C)[C@H]1O[C@@H]1O[C@H](C)C[C@H](N(C)C)[C@H]1O [Compound 155, (3R,6R,8R,9R,10R)-9-(((2S,3R,4S,6R)-4-(dimethylamino)-3-hydroxy-6-methyltetrahydro-2H-pyran-2-yl)oxy)-8-methoxy-4,6,8,10,12,12-hexamethyl-3-(1-(3-methylbut-2-en-1-yl)azetidin-3-yl)-1-oxa-4-azacyclotridecane-11,13-dione]	4 to 32 (≈ 6.41 to 51.3 µM)		< 4	> 32	4 to 32 (≈ 6.41 to 51.3 µM)	< 4

Second part, led by results:

MIC [1] [µg/mL]	MIC [2, 6] [µg/mL]	MIC [3] [µg/mL]	MIC [4] [µg/mL]	MIC [5] [µg/mL]	Compound	MIC ([2]; MP4, read-out: MIC E. coli MP-4) [µg/mL]
4 to 32 (≈ 6.04 to 48.3 µM)	4 to 32 (≈ 6.04 to 48.3 µM)	4 to 32 (≈ 6.04 to 48.3 µM)	> 32	> 32	CO[C@]1(C)C[C@@H](C)CN(C)[C@H](C2CCN(S(C)(=O)=O)CC2)COC(=O)C(C)(C)C(=O)[C@H](C)[C@H]1O[C@@H]1O[C@H](C)C[C@H](N(C)C)[C@H]1O [Compound 142, (3R,6R,8R,9R,10R)-9-(((2S,3R,4S,6R)-4-(dimethylamino)-3-hydroxy-6-methyltetrahydro-2H-pyran-2-yl)oxy)-8-methoxy-4,6,8,10,12,12-hexamethyl-3-(1-(methylsulfonyl)piperidin-4-yl)-1-oxa-4-azacyclotridecane-11,13-dione]	
> 32	4 to 32 (≈ 6.25 to 50 µM)	4 to 32 (≈ 6.25 to 50 µM)	> 32	> 32	CO[C@]1(C)C[C@@H](C)CN(C)[C@H](C2CCN(C(C)C)CC2)[C@H](C)OC(=O)C(C)(C)C(=O)[C@H](C)[C@H]1O[C@@H]1O[C@H](C)C[C@H](N(C)C)[C@H]1O [Compound 147, (2S,3R,6R,8R,9R,10R)-9-(((2S,3R,4S,6R)-4-(dimethylamino)-3-hydroxy-6-methyltetrahydro-2H-pyran-2-yl)oxy)-3-(1-isopropylpiperidin-4-yl)-8-methoxy-2,4,6,8,10,12,12-heptamethyl-1-oxa-4-azacyclotridecane-11,13-dione]	
> 32	< 4	4 to 32 (≈ 6.11 to 48.9 µM)	> 32	> 32	CO[C@]1(C)C[C@@H](C)CN(C)[C@H]([C@@H]2CCN(C(=O)CN(C)C)C2)COC(=O)C(C)(C)C(=O)[C@H](C)[C@H]1O[C@@H]1O[C@H](C)C[C@H](N(C)C)[C@H]1O [Compound 148, (3R,6R,8R,9R,10R)-9-(((2S,3R,4S,6R)-4-(Dimethylamino)-3-hydroxy-6-methyltetrahydro-2H-pyran-2-yl)oxy)-3-((R)-1-(dimethylglycyl)pyrrolidin-3-yl)-8-methoxy-4,6,8,10,12,12-hexamethyl-1-oxa-4-azacyclotridecane-11,13-dione]	
> 32	< 4	4 to 32 (≈ 5.98 to 47.8 µM)	> 32	> 32	CO[C@]1(C)C[C@@H](C)CN(C)[C@@H](C2CN(C(=O)C(C)(C)N(C)C)C2)COC(=O)C(C)(C)C(=O)[C@H](C)[C@H]1O[C@@H]1O[C@H](C)C[C@H](N(C)C)[C@H]1O [Compound 149]	
4 to 32 (≈ 5.81 to 46.5 µM)	< 4	4 to 32 (≈ 5.81 to 46.5 µM)	> 32	> 32	CO[C@]1(C)C[C@@H](C)CN(C)[C@H](C2CN(C(=O)CN3CC(F)(F)C3)C2)COC(=O)C(C)(C)C(=O)[C@H](C)[C@H]1O[C@@H]1O[C@H](C)C[C@H](N(C)C)[C@H]1O [Compound 154, (3R,6R,8R,9R,10R)-3-(1-(2-(3,3-difluoroazetidin-1-yl)acetyl)azetidin-3-yl)-9-(((2S,3R,4S,6R)-4-(dimethylamino)-3-hydroxy-6-methyltetrahydro-2H-pyran-2-yl)oxy)-8-methoxy-4,6,8,10,12,12-hexamethyl-1-oxa-4-azacyclotridecane-11,13-dione]	
> 32	4 to 32 (≈ 6.25 to 50 µM)	4 to 32 (≈ 6.25 to 50 µM)	> 32	> 32	CCN(C)[C@H]1CC[C@H]([C@H]2COC(=O)C(C)(C)C(=O)[C@H](C)[C@@H](O[C@@H]3O[C@H](C)C[C@H](N(C)C)[C@H]3O)[C@](C)(OC)C[C@@H](C)CN2C)CC1 [Compound 157, (3S,6R,8R,9R,10R)-9-(((2S,3R,4S,6R)-4-(dimethylamino)-3-hydroxy-6-methyltetrahydro-2H-pyran-2-yl)oxy)-3-((1r,4S)-4-(ethyl(methyl)amino)cyclohexyl)-8-methoxy-4,6,8,10,12,12-hexamethyl-1-oxa-4-azacyclotridecane-11,13-dione]	
> 32	4 to 32 (≈ 5.86 to 46.9 µM)	> 32	> 32	> 32	CO[C@]1(C)C[C@@H](C)CN(C)[C@H](C2CCN(C(=O)CN(C)C)CC2)[C@H](C)OC(=O)C(C)(C)C(=O)[C@H](C)[C@H]1O[C@@H]1O[C@H](C)C[C@H](N(C)C)[C@H]1O [Compound 159, (2S,3R,6R,8R,9R,10R)-9-(((2S,3R,4S,6R)-4-(dimethylamino)-3-hydroxy-6-methyltetrahydro-2H-pyran-2-yl)oxy)-3-(1-(dimethylglycyl)piperidin-4-yl)-8-methoxy-2,4,6,8,10,12,12-heptamethyl-1-oxa-4-azacyclotridecane-11,13-dione]	
> 32	< 4	< 4	> 32	> 32	CO[C@]1(C)C[C@@H](C)CN(C)[C@H]([C@H]2CCN(C)C2)COC(=O)C(C)(C)C(=O)[C@H](C)[C@H]1O[C@@H]1O[C@H](C)C[C@H](N(C)C)[C@H]1O [Compound 166, (3R,6R,8R,9R,10R)-9-(((2S,3R,4S,6R)-4-(Dimethylamino)-3-hydroxy-6-methyltetrahydro-2H-pyran-2-yl)oxy)-8-methoxy-4,6,8,10,12,12-hexamethyl-3-((S)-1-methylpyrrolidin-3-yl)-1-oxa-4-azacyclotridecane-11,13-dione]	
